We go through one substance from patent US20240099992A1, “COMPOSITIONS AND METHODS FOR TREATING CANCER” (priority 2021, published 2024).

In assay [1] the test system is cancer cell lines C8161, MUM2C, SKOV3, OVACA3, ScNAP, DU145, H1299, A549, MDA231, SNU499. The settings on record: MTT, 24 hours. As for the experimental part: The cancer cell lines were cultured in DMEM supplemented with 10% fetal bovine serum (FBS) and 100 U/mL penicillin-streptomycin in a humidified 37° C. incubator supplemented with 5% CO2. Cell proliferation was analyzed using MTT proliferation kit (Sigma). In brief, the cells were plated (5.0×10^3 cells per well) in 96-well plates and allowed to adhere overnight. The cells were then treated with methylenediamine dihydrochloride at various concentrations (0, 1 μM, 50 μM; 100 μM. 250 μM, 500 μM and 1 mM for 24 hours before the assay. After the incubation period, 10 μL of the MTT labeling reagent (final concentration 0.5 mg/mL) was added to each well. The microplate was incubated for 4 hours in a humidified atmosphere (37° C., 5% CO2). 100 μL of the Solubilization solution was added into each well. The plate was allowed to stand overnight in the incubator in a humidified atmosphere (37° C., 5% CO2). Complete solubilization of the purple formazan crystals was checked and the absorbance of the samples was measured using a microplate reader with wavelength of 570 nm.

Assay [2] deals with HL-60 (acute leukemia cell). The settings on record: 50 μM, 100 μM and 500 μM, 24 hours. As for the experimental part: (§1) 50000 cells of each cell line were plated per well in a 24 well plate, treated with methylenediamine hydrochloride at different concentrations (0 as control, 50 μM, 100 μM and 500 μM) for 24 hours, then the living cells were counted. Jurkat: T cell leukemia, HL-60: acute leukemia cell; MV-411: B-myelomonocytic leukemia.

The next assay concerns Jurkat (T cell leukemia). The settings on record: 50 μM, 100 μM and 500 μM, 24 hours. As for the experimental part:
as §1

Assay [3] deals with MV-411 (B-myelomonocytic leukemia). Particulars: 50 μM, 100 μM and 500 μM, 24 hours. As for the experimental part: as §1
The subject of assay [4] is H22, a mouse liver cancer cell line. The settings on record: for Tumor suppression rate at day 9: versus normal saline group; for Tumor suppression rate at day 9 / suppression of tumor growth in the mouse liver cancer model (in words): dihydrochloride; for suppression of tumor growth in the mouse liver cancer model (in words): 120 and 240 mg/Kg daily through mouth, dose dependent. As for the experimental part: H22, a mouse liver cancer cell line from ATCC, was cultured in 1640 medium with 10% […] at 37° C., 5% CO2. The cells were harvest 48 hours later and diluted to 1×10^6 cells/mL with the medium. Kunming mice, male, and body weight of 20 to 23 grams were used for the in vivo study. The animals were allowed free access to food and water throughout the study. All experimental protocols described here were approved by the Ethics Review Committee for Animal Experimentation. 0.2 mL of 1×10^6/ml cell suspension was inoculated into the abdominal cavity of the Kunming mice. The H22 ascites was transplanted 5 days later. The H22 cells in the ascites were harvested, diluted to a concentration of 1×10^7/mL with sterilized NS, then 0.2 mL was injected subcutaneously into the right armpit region of the mice. […] The animals were randomly divided into 3 groups with 7 mice in each and received the drug through mouth daily. Group 1: normal saline; Group 2: Methylenediamine Dihydrochloride low dose of 120 mg/Kg; Group 3: methylenediamine dihydrochloride high dose of 240 mg/Kg. Two perpendicular dimensions (length and width) of the subcutaneous transplantation tumors were measured in every mouse at day 3, day 6 and day 9 to calculate the tumor volume which was compared among groups (volume=½×length×width^2). […] The tumor suppression rate was calculated as: tumor volume in normal saline group minus tumor volume in methylenediamine dihydrochloride treated group, then divided by tumor volume of normal saline group.

Read-outs that look alike come from different tables or passages of the source.

On to methylenediamine dihydrochloride, for which, in assay [1] (0 μM to 1 mM), the “suppression of cell proliferation (in words)” value is on record as “suppressed with a dose dependent pattern”. In addition, in assay [1], the “concentration at which suppression of most cancer cells' growth started” value was determined as 50 µM. In assay [1] (dose dependent pattern), the “concentration above which proliferation was significantly suppressed” value is given as “above 100 μM”. For the same substance, the “suppression of living cells” value (in assay [2]; in the assay with Jurkat (T cell leukemia); in assay [3]) was “significant suppression” in each case. Further, the “Average tumor volume, Day 3” value in assay [4] (120 mg/Kg daily through mouth) was determined as 0.43 cm^3; in assay [4] (240 mg/Kg daily through mouth), 0.41 cm^3. The results for the “Average tumor volume, Day 6” value in assay [4] (120 mg/Kg daily through mouth) and in assay [4] (240 mg/Kg daily through mouth) were 0.85 cm^3 and 0.78 cm^3, respectively. Also, the “Average tumor volume, Day 9” value in assay [4] (120 mg/Kg daily through mouth) was found to be 1.21 cm^3; in assay [4] (240 mg/Kg daily through mouth), 1.10 cm^3. Also, the “Tumor suppression rate at day 9” value in assay [4] (120 mg/Kg daily through mouth) amounted to 30.5%; in assay [4] (120 mg/Kg daily through mouth, listed as Methylenediamine dihydrochloride), 30.5%; in assay [4] (240 mg/Kg daily through mouth), 36.8%; in assay [4] (240 mg/Kg daily through mouth, listed as Methylenediamine dihydrochloride) it was 36.8%. The “suppression of tumor growth in the mouse liver cancer model (in words)” value is given as “effective in treating cancers” in assay [4] (listed as ethylenediamine dihydrochloride) and “successfully suppressed tumor growth” in assay [4] (listed as methylenediamine dihydrochloride).
